Experimental data from patent publication US9670194B2 (Calitor Sciences, LLC, priority 2013, dated 2017).

What was measured:
PI3K (p110δ/p85α) (h) = PI3K (p110δ/p85α) (h) (Homo sapiens (Human), UniProt O00329); experiment: PI3K (p110δ/p85α) (h) non-radioactive HTRF kinase assay; format: biochemical
[1] = Compound stability in human liver microsomes; format: in vitro ADME; conditions: for half-life at 5 μM: human liver microsomes 0.5 mg protein/mL, compound 5 μM, NADPH 1.0 mM, 37° C.; for CLint scaled at 5 μM: human liver microsomes, in vivo CLint extrapolated
[2] = Pharmacokinetics after intravenous and oral administration in rats; format: in vivo, rat; conditions: for clearance (CL) / AUC(0-t) / half-life / Vd: iv dosing, dose 1 mg/kg; for bioavailability / AUC(0-t) / half-life / Vd: rat, plasma; for bioavailability: iv dose 1 mg/kg, oral dose generally 5 or 10 mg/kg; for Vd: read-out: Vss
[3] = Compound stability in rat liver microsomes; format: in vitro ADME; conditions: pH 7.4; for half-life at 5 μM: rat liver microsomes 0.5 mg protein/mL, compound 5 μM, NADPH 1.0 mM, 37° C.; for CLint scaled at 5 μM: rat liver microsomes, in vivo CLint extrapolated

Chain of PI3K (p110δ/p85α) (h) (O00329 whole entry): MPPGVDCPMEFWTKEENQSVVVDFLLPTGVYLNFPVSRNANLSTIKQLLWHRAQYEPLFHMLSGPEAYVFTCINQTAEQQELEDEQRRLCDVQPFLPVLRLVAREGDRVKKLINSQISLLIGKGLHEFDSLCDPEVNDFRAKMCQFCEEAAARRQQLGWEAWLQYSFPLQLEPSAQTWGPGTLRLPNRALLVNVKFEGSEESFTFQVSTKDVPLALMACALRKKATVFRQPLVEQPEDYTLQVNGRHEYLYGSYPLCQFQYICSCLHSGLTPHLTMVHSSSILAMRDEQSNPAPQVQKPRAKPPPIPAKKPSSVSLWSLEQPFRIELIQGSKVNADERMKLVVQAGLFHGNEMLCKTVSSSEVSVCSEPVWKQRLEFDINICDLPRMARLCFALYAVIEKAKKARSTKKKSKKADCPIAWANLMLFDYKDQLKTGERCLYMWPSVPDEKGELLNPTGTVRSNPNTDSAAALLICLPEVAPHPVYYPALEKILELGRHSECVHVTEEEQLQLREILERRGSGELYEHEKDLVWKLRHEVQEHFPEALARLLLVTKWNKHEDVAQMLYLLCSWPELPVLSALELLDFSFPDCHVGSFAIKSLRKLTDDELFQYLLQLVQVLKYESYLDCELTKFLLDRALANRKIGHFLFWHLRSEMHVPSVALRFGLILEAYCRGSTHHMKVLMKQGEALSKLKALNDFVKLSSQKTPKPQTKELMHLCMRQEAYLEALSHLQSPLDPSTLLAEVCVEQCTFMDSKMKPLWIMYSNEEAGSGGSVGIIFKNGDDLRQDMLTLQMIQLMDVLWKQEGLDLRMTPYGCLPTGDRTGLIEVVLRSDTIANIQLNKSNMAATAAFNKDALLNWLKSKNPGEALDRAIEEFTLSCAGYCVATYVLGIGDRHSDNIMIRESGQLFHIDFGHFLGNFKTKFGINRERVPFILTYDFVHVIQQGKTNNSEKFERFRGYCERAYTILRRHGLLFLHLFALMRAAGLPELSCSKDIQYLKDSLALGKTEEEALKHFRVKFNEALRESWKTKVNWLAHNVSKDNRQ
Chain of PI3K (p110δ/p85α) (h) (P27986 whole entry partner): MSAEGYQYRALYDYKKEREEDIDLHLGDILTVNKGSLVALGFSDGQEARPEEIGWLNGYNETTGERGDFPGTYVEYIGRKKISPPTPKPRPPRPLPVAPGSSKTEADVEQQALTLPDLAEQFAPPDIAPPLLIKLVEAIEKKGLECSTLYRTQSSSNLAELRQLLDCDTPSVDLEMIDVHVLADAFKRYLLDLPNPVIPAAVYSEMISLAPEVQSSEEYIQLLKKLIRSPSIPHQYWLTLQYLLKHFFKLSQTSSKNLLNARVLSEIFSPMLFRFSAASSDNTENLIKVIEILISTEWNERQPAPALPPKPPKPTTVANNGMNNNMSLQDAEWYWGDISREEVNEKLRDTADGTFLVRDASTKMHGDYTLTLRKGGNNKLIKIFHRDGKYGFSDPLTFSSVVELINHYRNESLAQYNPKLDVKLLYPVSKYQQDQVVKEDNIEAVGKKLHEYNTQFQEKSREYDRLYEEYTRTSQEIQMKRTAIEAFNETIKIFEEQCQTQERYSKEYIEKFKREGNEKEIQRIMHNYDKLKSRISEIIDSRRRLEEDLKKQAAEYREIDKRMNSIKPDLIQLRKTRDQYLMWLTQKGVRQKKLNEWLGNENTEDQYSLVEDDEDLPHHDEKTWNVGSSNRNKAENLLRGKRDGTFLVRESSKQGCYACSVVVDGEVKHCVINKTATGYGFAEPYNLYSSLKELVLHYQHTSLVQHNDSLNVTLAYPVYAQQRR

Row | SMILES | IC50 (PI3K (p110δ/p85α) (h)) | half-life at 5 μM [1] | CLint scaled at 5 μM [1] | clearance (CL) [2] | bioavailability [2] | AUC(0-t) [2] | half-life [2] | Vd [2] | half-life at 5 μM [3] | CLint scaled at 5 μM [3]
1 | CC[C@H](Nc1ncnc(N)c1-c1noc(C)n1)c1nc2cccc(Cl)c2c(=O)n1C1CC1 [Ex. 12, (S)-2-(1-((6-amino-5-(5-methyl-1,2,4-oxadiazol-3-yl)pyrimidin-4-yl)amino)-propyl)-5-chloro-3-cyclopropylquinazolin-4(3H)-one] | 48 nM | 20.6 min | 84.6 mL/min/kg | 31.8 mL/min/kg | 48.9% | 518 ng·h/mL | 76.8 min | 3.14 L/kg | 31 min | 80.2 mL/min/kg
2 | CC[C@H](Nc1ncnc(N)c1-c1ccon1)c1nc2cccc(Cl)c2c(=O)n1C1CC1 [Ex. 14, (S)-2-(1-((6-amino-5-(isoxazol-3-yl)pyrimidin-4-yl)amino)propyl)-5-chloro-3-cyclopropylquinazolin-4(3H)-one] | 20 nM | – | – | 46.7 mL/min/kg | 23.1% | 362 ng·h/mL | 45.6 min | 2.18 L/kg | – | –
3 | CC[C@@H](Nc1ncnc(N)c1-c1nc(C)no1)c1nc2cccc(Cl)c2c(=O)n1C1CC1 [Ex. 19, (R)-2-(1-((6-amino-5-(3-methyl-1,2,4-oxadiazol-5-yl)pyrimidin-4-yl)amino)propyl)-5-chloro-3-cyclopropylquinazolin-4(3H)-one] | > 3000 nM | 52.4 min | 47.4 mL/min/kg | 127 mL/min/kg | 5.49% | 132 ng·h/mL | 51.6 min | 6.98 L/kg | 19.7 min | 126 mL/min/kg
4 | CC[C@H](Nc1ncnc(N)c1-c1nnc(C)o1)c1nc2cccc(C)c2c(=O)n1C1CC1 [Ex. 20, (S)-2-(1-((6-amino-5-(5-methyl-1,3,4-oxadiazol-2-yl)pyrimidin-4-yl)amino)propyl)-3-cyclopropyl-5-methylquinazolin-4(3H)-one] | 49 nM | 9.96 min | 249 mL/min/kg | 77.3 mL/min/kg | 79% | 215 ng·h/mL | 63 min | 6.35 L/kg | 9.27 min | 268 mL/min/kg
5 | CC[C@H](Nc1ncnc(N)c1-c1nc(C)no1)c1nc2cccc(C)c2c(=O)n1C1CC1 [Ex. 21, (S)-2-(1-((6-amino-5-(3-methyl-1,2,4-oxadiazol-5-yl)pyrimidin-4-yl)amino)-propyl)-3-cyclopropyl-5-methylquinazolin-4(3H)-one] | 19 nM | 25.4 min | 97.7 mL/min/kg | 55.8 mL/min/kg | 57.5% | 292 ng·h/mL | 96.6 min | 6.24 L/kg | 25 min | 99.3 mL/min/kg
6 | CC[C@H](Nc1ncnc(N)c1-c1nc(C)no1)c1nc2ccccc2c(=O)n1-c1ccccc1F [Ex. 22, (S)-2-(1-((6-amino-5-(3-methyl-1,2,4-oxadiazol-5-yl)pyrimidin-4-yl)amino)propyl)-3-(2-fluorophenyl)quinazolin-4(3H)-one] | 26 nM | 15.3 min | 163 mL/min/kg | 159 mL/min/kg | 29.8% | 104 ng·h/mL | 51 min | 9.46 L/kg | 7.95 min | 312 mL/min/kg
7 | CC[C@H](Nc1ncnc(N)c1-c1nc(COC)n(C)n1)c1nc2cccc(Cl)c2c(=O)n1C1CC1 [Ex. 46, (S)-2-(1-((6-amino-5-(5-(methoxymethyl)-1-methyl-1H-1,2,4-triazol-3-yl)pyrimidin-4-yl)amino)propyl)-5-chloro-3-cyclopropylquinazolin-4(3H)-one] | – | 6.1 min | 285 mL/min/kg | 55.8 mL/min/kg | 20.2% | 300 ng·h/mL | 42.6 min | 3.65 L/kg | 3.86 min | 644 mL/min/kg
8 | CC[C@H](Nc1ncnc(N)c1-c1ccon1)c1nc2cccc(C)c2c(=O)n1C1CC1 [Ex. 47, (S)-2-(1-((6-amino-5-(isoxazol-3-yl)pyrimidin-4-yl)amino)propyl)-3-cyclopropyl-5-methylquinazolin-4(3H)-one] | – | 27.1 min | 91.6 mL/min/kg | 6100 mL/min/kg | 23.6% | 271 ng·h/mL | 56.4 min | 3.16 L/kg | 7.63 min | 325 mL/min/kg
9 | CC[C@H](Nc1ncnc(N)c1-c1ccon1)c1nc2cccc(F)c2c(=O)n1C1CC1 [Ex. 48, (S)-2-(1-((6-amino-5-(isoxazol-3-yl)pyrimidin-4-yl)amino)propyl)-3-cyclopropyl-5-fluoroquinazolin-4(3H)-one] | – | 136 min | 12.8 mL/min/kg | 67.3 mL/min/kg | 32.7% | 254 ng·h/mL | 40.8 min | 2.42 L/kg | 27 min | 91.8 mL/min/kg
10 | CC[C@@H](Nc1ncnc(N)c1-c1ccon1)c1nc2cccc(Cl)c2c(=O)n1C1CC1 [Ex. 49, (R)-2-(1-((6-amino-5-(isoxazol-3-yl)pyrimidin-4-yl)amino)propyl)-5-chloro-3-cyclopropylquinazolin-4(3H)-one] | – | 43.8 min | 39.7 mL/min/kg | 85.3 mL/min/kg | 4.37% | 196 ng·h/mL | 39.6 min | 4.1 L/kg | 2.43 min | 1020 mL/min/kg
11 | CC[C@H](Nc1ncnc(N)c1-c1ncn(C)n1)c1nc2cccc(Cl)c2c(=O)n1-c1ccc(F)cc1 [Ex. 50, (S)-2-(1-((6-amino-5-(1-methyl-1H-1,2,4-triazol-3-yl)pyrimidin-4-yl)amino)propyl)-5-chloro-3-(4-fluorophenyl)quinazolin-4(3H)-one] | – | 11.4 min | 152 mL/min/kg | 86.7 mL/min/kg | 28.3% | 192 ng·h/mL | 68.4 min | 3.96 L/kg | 13.3 min | 186 mL/min/kg
12 | CC[C@H](Nc1ncnc(N)c1-c1nc(C)co1)c1nc2cccc(Cl)c2c(=O)n1C1CC1 [Ex. 52, (S)-2-(1-((6-amino-5-(4-methyloxazol-2-yl)pyrimidin-4-yl)amino)propyl)-5-chloro-3-cyclopropylquinazolin-4(3H)-one] | – | 7.72 min | 322 mL/min/kg | 85.7 mL/min/kg | 21.3% | 194 ng·h/mL | 73.2 min | 6.07 L/kg | 6.71 min | 370 mL/min/kg
13 | CC[C@H](Nc1ncnc(N)c1-c1nc(C(N)=O)n(C)n1)c1nc2cccc(Cl)c2c(=O)n1C1CC1 [Ex. 58, (S)-3-(4-amino-6-((1-(5-chloro-3-cyclopropyl-4-oxo-3,4-dihydroquinazolin-2-yl)propyl)amino)pyrimidin-5-yl)-1-methyl-1H-1,2,4-triazole-5-carboxamide] | – | 61.8 min | 28.1 mL/min/kg | 26.2 mL/min/kg | 106% | 580 ng·h/mL | 143 min | 5.03 L/kg | 122 min | 20.4 mL/min/kg
